Experimental data reported in ChEMBL document CHEMBL1201862, “PubChem BioAssay data set” (2004).
The source made the active and inactive calls.

How the values were obtained:
Ion channel NompC = Ion channel NompC (Danio rerio, UniProt Q7T1G6); experiment: Fluorescence counterscreen assay for TRPML3 agonists: dose response cell-based high-throughput screening assay to identify agonists of the transient receptor potential channel N1 (TRPN1). [Related pubchem assays: 1526, 1424, 1448 ]; type: functional
Mucolipin-3 = Mucolipin-3 (Homo sapiens, UniProt Q8TDD5); experiment: Dose response cell-based high-throughput screening assay for agonists of the transient receptor potential channel ML3 (TRPML3). [Related pubchem assays: 1526, 1424, 1448 ]; type: functional
[1] = molecular target: T1, Corticotropin-releasing factor receptor 2/Corticotropin-releasing factor-binding protein (Homo sapiens, UniProt P24387+Q13324); experiment: activators of CRF receptor 2 with binding protein – uHTS hits, confirmation (AID 602473); type: functional; conditions: read-out: EC50_Mean
T1 sequence (Q13324 whole entry): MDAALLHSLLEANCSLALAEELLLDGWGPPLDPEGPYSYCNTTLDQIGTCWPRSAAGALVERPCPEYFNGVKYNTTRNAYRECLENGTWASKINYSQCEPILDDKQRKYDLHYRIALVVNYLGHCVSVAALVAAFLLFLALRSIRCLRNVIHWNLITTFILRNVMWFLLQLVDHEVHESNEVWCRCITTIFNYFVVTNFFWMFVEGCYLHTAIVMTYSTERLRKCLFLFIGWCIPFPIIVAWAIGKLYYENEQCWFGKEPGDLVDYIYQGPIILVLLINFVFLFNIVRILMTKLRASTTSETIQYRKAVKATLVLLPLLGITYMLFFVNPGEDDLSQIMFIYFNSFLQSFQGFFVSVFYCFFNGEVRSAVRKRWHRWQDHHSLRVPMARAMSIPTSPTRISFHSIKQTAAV
T1 sequence (P24387 whole entry): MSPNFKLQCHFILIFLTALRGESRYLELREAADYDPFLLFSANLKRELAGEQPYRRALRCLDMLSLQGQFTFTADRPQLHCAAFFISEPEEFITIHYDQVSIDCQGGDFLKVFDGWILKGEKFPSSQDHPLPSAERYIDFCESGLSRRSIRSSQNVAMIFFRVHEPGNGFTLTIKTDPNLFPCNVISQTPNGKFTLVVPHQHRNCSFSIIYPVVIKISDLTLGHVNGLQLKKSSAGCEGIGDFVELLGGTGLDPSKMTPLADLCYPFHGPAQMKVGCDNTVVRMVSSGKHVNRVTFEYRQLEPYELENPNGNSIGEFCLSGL

[2] = molecular target: Protein-tyrosine kinase 2-beta (Homo sapiens, UniProt Q14289);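 further: potency of inhibitors of PYK2 kinase phosphorylation of poly-GT substrate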
Beta-lactamase [3] = molecular target: Beta-lactamase (Pseudomonas aeruginosa, UniProt Q79MP6);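 further: biochemical dose-response test of metallo-beta-lactamase enzyme inhibition, read out by epi-absorbance; purified recombinant IMP-1 metallo-beta-lactamase with nitrocefin as substrate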
[4] = molecular target: Voltage-dependent T-type calcium channel subunit alpha-1H (Homo sapiens, UniProt O95180); type: functional;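 further: channel activity triggered by adding a high calcium stimulation buffer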
HT-1080 = experiment: cytotoxicity in HT1080 fibrosarcoma cells, cell-based, fluorescence readout (AID 620); type: functional; conditions: Homo sapiens
Beta-lactamase [5] = molecular target: Beta-lactamase (Salmonella choleraesuis (strain SC-B67), UniProt Q5J463)
[6] = molecular target: Luciferin 4-monooxygenase (Photinus pyralis, UniProt P08659); experiment: Counter Screen for Luciferase-based Assay Positives. [Related pubchem assays: 620, 618, 411 ]
Estrogen receptor beta [7] = molecular target: T2, Estrogen receptor beta (Homo sapiens, UniProt Q92731);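 further: recombinant ER-beta bound to coactivator SRC1 peptide in presence of estradiol agonist; inhibitors block coactivator peptide binding and lower the FRET signal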
Estrogen receptor = Estrogen receptor (Homo sapiens, UniProt P03372);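 further: potency for inhibiting coactivator peptide recruitment to the receptor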
[8] = inhibitors of firefly luciferase expression or activity, dose response, H4 neuroglioma cells, luminescence (AID 1990); type: functional, cell-based
[9] = Luminescence Cell-Based Dose Response HTS to Identify Inhibitors of 5'UTR Stem-Loop Driven Prion Protein mRNA Translation in H4 Neuroglioblastoma Cells. [Related pubchem assays: 1827 (Project Summary), 1813 (Primary HTS)]; type: functional
[10] = inhibitors of SNCA 5'UTR-driven reporter translation, confirmation, H4 neuroglioma cells, luminescence (AID 1988); type: functional, cell-based
[11] = cytotoxicity in HPDE-C7 cells, cell-based, fluorescence, HTS (AID 430); type: functional; conditions: Homo sapiens
Protein RecA = molecular target: T3, Protein RecA (Mycobacterium tuberculosis, UniProt P9WHJ3); experiment: Fluorescence Cell-Free Homogeneous Dose Retest to Identify Inhibitors of RecA-Intein Splicing Activity. [Related pubchem assays (depositor defined):AID2097, AID2223, AID489010, AID492950]; type: functional
T3 sequence (P9WHJ3 whole entry): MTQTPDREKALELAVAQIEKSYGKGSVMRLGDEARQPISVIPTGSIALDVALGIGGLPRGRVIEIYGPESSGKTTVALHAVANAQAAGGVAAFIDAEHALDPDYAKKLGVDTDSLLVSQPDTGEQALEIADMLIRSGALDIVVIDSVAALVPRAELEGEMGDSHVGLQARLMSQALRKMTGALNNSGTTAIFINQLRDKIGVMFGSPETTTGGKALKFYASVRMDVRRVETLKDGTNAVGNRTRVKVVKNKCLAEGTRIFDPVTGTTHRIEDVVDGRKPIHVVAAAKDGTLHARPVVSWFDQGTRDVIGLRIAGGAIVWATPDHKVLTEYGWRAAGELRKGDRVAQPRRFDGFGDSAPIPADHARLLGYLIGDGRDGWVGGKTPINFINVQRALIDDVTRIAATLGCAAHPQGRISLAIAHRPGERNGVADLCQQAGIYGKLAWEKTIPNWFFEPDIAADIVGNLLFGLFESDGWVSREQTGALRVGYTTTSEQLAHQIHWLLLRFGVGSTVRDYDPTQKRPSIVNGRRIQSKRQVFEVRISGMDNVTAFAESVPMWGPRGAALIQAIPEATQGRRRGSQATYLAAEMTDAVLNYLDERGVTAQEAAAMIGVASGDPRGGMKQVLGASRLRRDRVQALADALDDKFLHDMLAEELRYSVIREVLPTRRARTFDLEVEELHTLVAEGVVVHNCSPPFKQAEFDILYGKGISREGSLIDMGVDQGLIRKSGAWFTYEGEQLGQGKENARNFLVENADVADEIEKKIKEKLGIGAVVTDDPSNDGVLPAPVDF

[12] = cytotoxicity in KRAS-transformed pancreatic duct cells, primary screen, cell-based, fluorescence, HTS (AID 431); type: functional; conditions: Homo sapiens;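 further: cell line used: HPDE-C7K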
[13] = molecular target: T4, Replicative DNA helicase DnaB (Mycobacterium tuberculosis, UniProt P9WMR3); experiment: DnaB intein splicing inhibitors, dose response, biochemical, cell-free fluorescence (AID 449749); type: functional
T4 sequence (P9WMR3 whole entry): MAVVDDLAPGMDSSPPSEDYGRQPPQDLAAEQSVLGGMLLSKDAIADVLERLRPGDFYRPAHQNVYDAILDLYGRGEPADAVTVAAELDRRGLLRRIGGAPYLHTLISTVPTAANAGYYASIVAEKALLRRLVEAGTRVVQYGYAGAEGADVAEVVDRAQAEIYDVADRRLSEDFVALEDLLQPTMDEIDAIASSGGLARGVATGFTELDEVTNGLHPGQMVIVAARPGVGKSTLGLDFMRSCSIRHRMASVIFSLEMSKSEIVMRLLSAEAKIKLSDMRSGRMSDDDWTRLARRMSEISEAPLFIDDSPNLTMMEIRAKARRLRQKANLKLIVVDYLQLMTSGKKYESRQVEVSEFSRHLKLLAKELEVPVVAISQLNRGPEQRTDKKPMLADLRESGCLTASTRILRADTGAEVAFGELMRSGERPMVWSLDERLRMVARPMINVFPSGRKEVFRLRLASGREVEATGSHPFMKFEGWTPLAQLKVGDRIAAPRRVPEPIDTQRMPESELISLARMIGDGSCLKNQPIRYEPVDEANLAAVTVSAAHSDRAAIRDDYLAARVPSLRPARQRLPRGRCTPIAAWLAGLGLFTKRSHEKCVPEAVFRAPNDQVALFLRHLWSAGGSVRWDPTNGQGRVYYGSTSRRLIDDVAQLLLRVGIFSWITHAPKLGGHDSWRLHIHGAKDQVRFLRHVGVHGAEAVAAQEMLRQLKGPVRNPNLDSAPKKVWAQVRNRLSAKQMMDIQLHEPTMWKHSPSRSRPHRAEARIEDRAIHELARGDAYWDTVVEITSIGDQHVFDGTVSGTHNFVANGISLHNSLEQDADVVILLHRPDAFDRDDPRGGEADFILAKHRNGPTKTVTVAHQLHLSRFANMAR

Estrogen receptor beta [14] = molecular target: T2, Estrogen receptor beta; experiment: ERβ–SRC-3 coactivator interaction inhibitors, confirmation, orthogonal assay, biochemical, ELISA, streptavidin-HRP readout (AID 1060)
[15] = growth suppression of beta-catenin-knockout colon cells, dose response, cell-based, HCT116, human colon tumor (AID 1045); type: functional;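 further: HCT116 colon tumor cells with beta catenin knocked out; cells exposed to compound for 60 hours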
[16] = growth suppression of PTEN-null colon cells, dose response, cell-based, HCT116 PTEN knockout (AID 1047); type: functional;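 further: HCT116 colon tumor cells with PTEN knocked out; cells exposed to compound for 60 hours before readout; potency for loss of cell viability measured by luminescence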
[17] = molecular target: T5, Apoptotic protease-activating factor 1 (Homo sapiens, UniProt O14727); type: functional
T5 sequence (O14727 whole entry): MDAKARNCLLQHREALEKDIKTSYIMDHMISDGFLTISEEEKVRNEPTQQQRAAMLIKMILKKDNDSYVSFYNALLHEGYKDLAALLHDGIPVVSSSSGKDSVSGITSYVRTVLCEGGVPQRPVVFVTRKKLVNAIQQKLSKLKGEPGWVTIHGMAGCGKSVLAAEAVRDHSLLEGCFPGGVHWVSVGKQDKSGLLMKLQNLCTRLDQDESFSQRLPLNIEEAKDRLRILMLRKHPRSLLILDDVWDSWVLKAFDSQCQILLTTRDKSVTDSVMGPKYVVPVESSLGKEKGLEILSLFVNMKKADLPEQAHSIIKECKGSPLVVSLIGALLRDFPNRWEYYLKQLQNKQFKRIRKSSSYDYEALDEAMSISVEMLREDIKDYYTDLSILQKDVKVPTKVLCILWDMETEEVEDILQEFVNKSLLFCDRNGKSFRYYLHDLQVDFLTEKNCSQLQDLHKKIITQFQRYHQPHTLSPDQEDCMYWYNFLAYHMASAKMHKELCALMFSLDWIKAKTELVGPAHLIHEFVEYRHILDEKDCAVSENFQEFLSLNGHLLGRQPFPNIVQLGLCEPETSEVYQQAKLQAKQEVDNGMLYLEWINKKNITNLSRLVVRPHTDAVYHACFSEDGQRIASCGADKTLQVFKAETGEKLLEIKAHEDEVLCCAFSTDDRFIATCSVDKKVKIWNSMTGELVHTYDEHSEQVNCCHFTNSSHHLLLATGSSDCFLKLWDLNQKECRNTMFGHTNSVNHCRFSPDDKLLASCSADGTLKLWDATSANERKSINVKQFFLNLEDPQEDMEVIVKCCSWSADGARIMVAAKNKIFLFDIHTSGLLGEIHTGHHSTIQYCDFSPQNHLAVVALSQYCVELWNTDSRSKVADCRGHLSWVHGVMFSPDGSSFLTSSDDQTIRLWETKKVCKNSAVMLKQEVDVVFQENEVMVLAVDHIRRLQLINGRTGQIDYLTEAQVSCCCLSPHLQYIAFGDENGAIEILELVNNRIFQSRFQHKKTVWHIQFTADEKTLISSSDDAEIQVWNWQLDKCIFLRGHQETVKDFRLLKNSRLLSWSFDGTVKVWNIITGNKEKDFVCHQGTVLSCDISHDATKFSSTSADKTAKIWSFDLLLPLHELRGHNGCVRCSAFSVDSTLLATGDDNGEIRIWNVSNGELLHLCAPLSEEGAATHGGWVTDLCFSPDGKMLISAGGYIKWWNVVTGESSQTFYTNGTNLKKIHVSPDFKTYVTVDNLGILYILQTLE

T2 sequence (Q92731 whole entry): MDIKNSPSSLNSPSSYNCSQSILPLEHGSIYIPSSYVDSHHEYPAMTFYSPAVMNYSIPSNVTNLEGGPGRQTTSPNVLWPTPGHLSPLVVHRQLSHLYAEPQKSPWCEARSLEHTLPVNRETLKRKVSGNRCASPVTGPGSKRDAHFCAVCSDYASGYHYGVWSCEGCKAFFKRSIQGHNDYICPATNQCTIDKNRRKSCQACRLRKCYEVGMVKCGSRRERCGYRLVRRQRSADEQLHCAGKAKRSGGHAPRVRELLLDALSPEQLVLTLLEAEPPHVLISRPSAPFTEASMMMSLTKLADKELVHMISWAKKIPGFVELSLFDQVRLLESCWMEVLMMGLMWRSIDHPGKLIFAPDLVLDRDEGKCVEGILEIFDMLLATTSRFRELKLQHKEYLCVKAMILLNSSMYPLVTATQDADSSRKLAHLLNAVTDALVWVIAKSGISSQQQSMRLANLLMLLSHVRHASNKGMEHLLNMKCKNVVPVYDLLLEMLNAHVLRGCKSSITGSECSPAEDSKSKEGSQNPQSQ
Sequence of Mucolipin-3 (Q8TDD5 whole entry): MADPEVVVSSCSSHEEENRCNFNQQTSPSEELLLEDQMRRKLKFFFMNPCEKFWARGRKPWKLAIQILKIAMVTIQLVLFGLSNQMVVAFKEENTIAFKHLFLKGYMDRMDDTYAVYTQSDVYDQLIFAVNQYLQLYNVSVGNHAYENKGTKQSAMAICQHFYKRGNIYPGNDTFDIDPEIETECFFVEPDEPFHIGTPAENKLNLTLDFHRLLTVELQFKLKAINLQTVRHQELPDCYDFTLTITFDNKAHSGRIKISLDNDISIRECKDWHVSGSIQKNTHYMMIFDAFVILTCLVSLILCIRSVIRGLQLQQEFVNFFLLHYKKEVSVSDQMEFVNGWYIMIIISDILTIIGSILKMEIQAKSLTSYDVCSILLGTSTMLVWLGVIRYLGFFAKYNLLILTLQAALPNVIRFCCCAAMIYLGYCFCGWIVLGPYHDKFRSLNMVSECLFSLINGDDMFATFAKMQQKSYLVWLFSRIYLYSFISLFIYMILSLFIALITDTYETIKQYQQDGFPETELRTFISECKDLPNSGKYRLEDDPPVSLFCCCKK
Sequence of Ion channel NompC (Q7T1G6 whole entry): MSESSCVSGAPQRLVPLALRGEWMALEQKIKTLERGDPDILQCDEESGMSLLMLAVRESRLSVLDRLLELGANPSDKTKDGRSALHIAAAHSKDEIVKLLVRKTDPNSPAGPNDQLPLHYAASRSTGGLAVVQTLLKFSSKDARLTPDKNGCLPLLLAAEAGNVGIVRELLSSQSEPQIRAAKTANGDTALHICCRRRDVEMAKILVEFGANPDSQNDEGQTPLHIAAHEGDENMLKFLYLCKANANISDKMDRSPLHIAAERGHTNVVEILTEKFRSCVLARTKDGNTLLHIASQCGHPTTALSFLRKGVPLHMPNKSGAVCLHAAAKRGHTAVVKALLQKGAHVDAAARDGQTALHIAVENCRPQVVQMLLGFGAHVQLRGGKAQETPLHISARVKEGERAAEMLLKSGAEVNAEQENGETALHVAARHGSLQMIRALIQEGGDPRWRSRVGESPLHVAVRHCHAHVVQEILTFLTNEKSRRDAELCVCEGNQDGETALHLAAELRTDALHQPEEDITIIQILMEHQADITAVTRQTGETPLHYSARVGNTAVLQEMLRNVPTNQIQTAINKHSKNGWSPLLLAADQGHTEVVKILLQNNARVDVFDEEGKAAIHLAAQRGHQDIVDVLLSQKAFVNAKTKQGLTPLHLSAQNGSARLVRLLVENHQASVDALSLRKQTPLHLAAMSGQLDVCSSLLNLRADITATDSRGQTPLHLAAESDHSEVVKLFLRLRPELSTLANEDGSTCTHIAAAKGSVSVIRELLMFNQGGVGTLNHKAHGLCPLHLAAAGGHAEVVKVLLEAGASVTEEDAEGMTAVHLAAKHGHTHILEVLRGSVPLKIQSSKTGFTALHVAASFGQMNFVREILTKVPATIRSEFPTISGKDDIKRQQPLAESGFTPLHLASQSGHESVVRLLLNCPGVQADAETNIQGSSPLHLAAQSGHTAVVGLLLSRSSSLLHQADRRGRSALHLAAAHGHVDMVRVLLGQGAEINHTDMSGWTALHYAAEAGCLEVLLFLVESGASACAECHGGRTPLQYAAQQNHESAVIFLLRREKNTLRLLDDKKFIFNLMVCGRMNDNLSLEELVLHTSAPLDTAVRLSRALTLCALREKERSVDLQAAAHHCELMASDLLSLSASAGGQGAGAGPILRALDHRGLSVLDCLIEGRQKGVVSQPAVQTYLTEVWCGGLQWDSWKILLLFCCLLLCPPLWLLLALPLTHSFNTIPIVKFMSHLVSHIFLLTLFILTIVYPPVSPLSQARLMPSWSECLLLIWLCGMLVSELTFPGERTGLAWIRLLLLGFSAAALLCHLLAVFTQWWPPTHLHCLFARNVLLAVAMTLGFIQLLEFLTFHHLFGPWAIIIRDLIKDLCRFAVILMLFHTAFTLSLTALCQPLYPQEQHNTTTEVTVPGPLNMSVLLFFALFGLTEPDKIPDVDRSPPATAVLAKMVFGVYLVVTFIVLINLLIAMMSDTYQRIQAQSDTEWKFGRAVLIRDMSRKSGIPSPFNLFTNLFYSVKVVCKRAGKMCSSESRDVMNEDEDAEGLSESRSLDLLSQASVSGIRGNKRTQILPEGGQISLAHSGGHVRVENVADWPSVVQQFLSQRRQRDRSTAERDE
Sequence of Luciferin 4-monooxygenase (P08659 whole entry): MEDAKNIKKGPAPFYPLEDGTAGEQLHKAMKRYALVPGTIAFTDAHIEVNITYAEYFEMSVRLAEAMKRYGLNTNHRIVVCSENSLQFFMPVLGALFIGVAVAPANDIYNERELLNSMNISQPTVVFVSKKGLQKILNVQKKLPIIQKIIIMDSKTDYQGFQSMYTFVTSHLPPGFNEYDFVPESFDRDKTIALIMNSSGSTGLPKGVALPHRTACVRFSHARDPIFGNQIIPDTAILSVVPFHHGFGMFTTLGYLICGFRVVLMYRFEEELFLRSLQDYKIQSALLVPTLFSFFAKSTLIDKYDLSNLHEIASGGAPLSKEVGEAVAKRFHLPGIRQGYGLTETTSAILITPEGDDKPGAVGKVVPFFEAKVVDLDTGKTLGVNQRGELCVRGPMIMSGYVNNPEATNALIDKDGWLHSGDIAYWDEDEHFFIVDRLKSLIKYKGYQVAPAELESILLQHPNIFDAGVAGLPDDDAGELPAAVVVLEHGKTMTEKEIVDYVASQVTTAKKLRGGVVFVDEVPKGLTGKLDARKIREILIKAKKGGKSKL
Sequence of Protein-tyrosine kinase 2-beta (Q14289 whole entry): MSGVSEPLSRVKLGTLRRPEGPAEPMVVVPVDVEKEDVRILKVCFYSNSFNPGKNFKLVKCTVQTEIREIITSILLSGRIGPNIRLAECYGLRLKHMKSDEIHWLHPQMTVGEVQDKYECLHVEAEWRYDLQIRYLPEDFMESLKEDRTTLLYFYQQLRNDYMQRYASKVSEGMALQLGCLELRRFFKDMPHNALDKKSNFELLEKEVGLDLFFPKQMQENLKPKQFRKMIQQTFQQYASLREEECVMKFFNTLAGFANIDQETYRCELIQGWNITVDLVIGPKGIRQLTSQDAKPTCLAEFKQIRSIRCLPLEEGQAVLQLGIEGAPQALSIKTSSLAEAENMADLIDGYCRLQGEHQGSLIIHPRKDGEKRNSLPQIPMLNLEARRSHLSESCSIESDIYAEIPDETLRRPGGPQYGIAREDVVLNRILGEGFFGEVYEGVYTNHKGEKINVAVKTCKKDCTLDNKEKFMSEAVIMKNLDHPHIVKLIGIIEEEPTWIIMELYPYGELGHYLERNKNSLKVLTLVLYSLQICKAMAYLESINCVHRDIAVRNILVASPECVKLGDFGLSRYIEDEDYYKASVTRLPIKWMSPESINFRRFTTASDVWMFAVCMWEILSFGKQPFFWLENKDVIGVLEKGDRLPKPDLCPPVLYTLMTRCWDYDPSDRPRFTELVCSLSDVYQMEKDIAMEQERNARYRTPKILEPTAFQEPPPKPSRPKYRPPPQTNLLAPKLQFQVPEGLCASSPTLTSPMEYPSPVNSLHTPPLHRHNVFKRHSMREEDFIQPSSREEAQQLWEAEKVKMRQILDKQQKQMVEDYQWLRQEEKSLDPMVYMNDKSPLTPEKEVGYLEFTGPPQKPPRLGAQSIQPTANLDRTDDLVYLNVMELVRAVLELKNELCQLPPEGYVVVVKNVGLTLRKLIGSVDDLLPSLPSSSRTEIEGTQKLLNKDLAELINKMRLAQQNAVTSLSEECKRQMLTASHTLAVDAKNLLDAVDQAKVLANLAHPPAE
Sequence of Estrogen receptor (P03372 whole entry): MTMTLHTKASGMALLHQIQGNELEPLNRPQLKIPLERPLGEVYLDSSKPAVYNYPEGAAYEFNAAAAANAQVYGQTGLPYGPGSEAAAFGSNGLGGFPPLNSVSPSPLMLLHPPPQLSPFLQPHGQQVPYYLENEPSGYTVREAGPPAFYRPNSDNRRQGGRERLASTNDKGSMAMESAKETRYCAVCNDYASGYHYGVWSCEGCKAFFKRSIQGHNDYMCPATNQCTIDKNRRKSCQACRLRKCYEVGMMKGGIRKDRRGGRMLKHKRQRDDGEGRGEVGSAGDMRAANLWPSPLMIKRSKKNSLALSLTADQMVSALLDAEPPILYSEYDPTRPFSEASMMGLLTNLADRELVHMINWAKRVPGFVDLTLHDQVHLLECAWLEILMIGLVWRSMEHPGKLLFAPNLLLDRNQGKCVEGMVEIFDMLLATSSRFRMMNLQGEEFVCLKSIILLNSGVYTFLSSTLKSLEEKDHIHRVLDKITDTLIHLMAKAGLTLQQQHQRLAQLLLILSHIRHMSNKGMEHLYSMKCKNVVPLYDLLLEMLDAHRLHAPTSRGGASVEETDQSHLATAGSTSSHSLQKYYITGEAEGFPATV

O=C(c1ccc([N+](=O)[O-])cc1)N(Cc1ccc(Cl)cc1Cl)N1C(=O)CCCC1=O
EC50 (Ion channel NompC): > 29.9 µM (not active) | EC50 (Mucolipin-3): > 29.9 µM (not active) | EC50 [1]: > 53 µM (inactive)

CC(C)N(C(=O)c1ccc2nc(-c3ccccc3)c(-c3ccccc3)nc2c1)C(C)C
EC50 (Ion channel NompC): > 29.9 µM (not active) | EC50 (Mucolipin-3): 1.52 µM (active)

CCN(CC)c1ccc2cc(-c3nc4ccccc4[nH]3)c(=O)oc2c1
IC50 [2]: 2.32 µM (active) | IC50 (Beta-lactamase [3]): 3.24 µM (active) | EC50 [4]: 0.434 µM (active) | EC50 (HT-1080): > 50 µM (not active) | IC50 (Beta-lactamase [5]): 0.709 µM (active) | EC50 [6]: < 0.2 µM (active)

C/N=C1\SC(CC(=O)Nc2ccc(C(C)=O)cc2)C(=O)N1C (centres undefined)
IC50 (Estrogen receptor beta [7]): > 50 µM (not active) | IC50 (Estrogen receptor): > 50 µM (not active)

O=c1c(Cl)c(N2CCCCC2)cnn1-c1nc2ccccc2[nH]1
EC50 [8]: 2.55 µM (active) | EC50 [9]: 34.4 µM (active) | EC50 [10]: 2.68 µM (active) | EC50 (HT-1080): > 50 µM (not active) | EC50 [6]: 4.25 µM (active)

COc1ccc(-c2nnc(SC(=O)N3c4ccccc4Sc4ccccc43)o2)cc1
EC50 [11]: 12.5 µM (active) | EC50 (Protein RecA): 0.451 µM (active) | EC50 [12]: 8.96 µM (active) | AC50 [13]: 1.79 µM (active)

CC12CCC(=O)N1C(C(=O)OCC(=O)Nc1sccc1C#N)CS2 (centres undefined)
IC50 (Estrogen receptor beta [14]): 0.118 µM (not active) | IC50 (Estrogen receptor beta [7]): 14.4 µM (active)

Nc1c(C(=O)NCc2ccc3c(c2)OCO3)c2nc3ccccc3nc2n1CCCN1CCOCC1
EC50 [15]: 20.2 µM (active) | EC50 [11]: 9.92 µM (active) | EC50 [16]: 20.6 µM (active) | EC50 [12]: 13.2 µM (active) | IC50 [17]: 76.8 µM (active)
